Residue numbers refer to the chain shown, from its start. Marks after values point to notes of the source that are not given here.

The subject of test [1] is Lucilia cuprina larvae, laboratory drug-susceptible strain LS. The test can be described thus: Lucilia cuprina larval bioassay (pupation rate), laboratory strain. The note with it: laboratory (LS) strain; pupation rate; boronic acid, where present, at 1 mg/assay. Format: in vivo. As to the method: Inhibitor efficacy was determined by treating larvae with diazinon over a range of concentrations, in the presence or absence of the compounds at constant concentrations, and comparing pupation rates.
(§1) Two strains of L. cuprina were used: 1) a laboratory reference drug-susceptible strain, LS, derived from collections in the Australian Capital Territory over 40 years ago, with no history of exposure to insecticides; and 2) a field-collected strain, Tara, resistant to diazinon and diflubenzuron (Levot, G. W. & Sales, N. New high level resistance to diflubenzuron detected in the Australian sheep blowfly, Lucilia cuprina (Wiedemann) (Diptera: Calliphoridae). Gen. Appl. Entomol. 31, 43-46 (2002)). The LcαE7 gene was sequenced in each of the strains. Briefly, genomic DNA was prepared from 20 adult female flies from each strain using the DNeasy Blood and Tissue kit (Qiagen). PCR was performed with primers specific to the LcαE7 gene, and the product was cloned into a pGEM-T EASY vector (Promega). Eight clones of the susceptible strain and 10 clones of the resistant strain were sequenced using M13 forward and reverse primers.
Each experiment utilized 50 larvae at each diazinon/malathion concentration. Experiments were replicated three times for diazinon, and twice for malathion. The insecticidal effects were defined by measuring the pupation rate. […] Compounds were also without diazinon or malathion at 1 mg per assay.

The target in the next test is Aedes aegypti CBE. The test can be described thus: Inhibition of insect CBEs, 4-NPB substrate. Format: biochemical. As to conditions: n=3. As to the method: (§2) Assays were performed with 4-NPB as the substrate.
The target of a further test is Anopheles gambiae CBE. The test can be described thus: Inhibition of insect CBEs, 4-NPB substrate. As to conditions: n=3. Format: biochemical. As to the method:
as §2

The target of test [2] is Culex quinquefasciatus CBE (Culex quinquefasciatus, UniProt Q23734). In words: Inhibition of insect CBEs, 4-NPB substrate. It counts as biochemical. As to conditions: n=3. As to the method:
as §2

Test [3] has as its system Lucilia cuprina larvae, field strain Tara resistant to diazinon. In words: Lucilia cuprina larval bioassay (pupation rate), field strain. It counts as in vivo.
From the text: Diazinon resistance is typically associated with the Gly137Asp mutation/resistance allele. […] This is consistent with previous results showing that duplications of the chromosomal region containing αE7 have occurred, meaning that resistant strains now carry copies of both WT and Glyl37Asp LcαE7.
as §1
The effect of compounds 2, 3, 5, 3.9 and 3.10 on the development of blowfly larvae in the presence of diazinon/malathion was assessed using a bioassay system in which larvae were allowed to develop from the first instar stage until pupation on cotton wool impregnated with diazinon/malathion over a range of concentrations, in the presence or absence of the compounds at constant concentrations (Kotze, A. C. et al. Histone deacetylase enzymes as drug targets for the control of the sheep blowfly, Lucilia cuprina. Int. J. Parasitol. Drugs Drug Resist. 5, 201-208 (2015)). Each experiment utilized 50 larvae at each diazinon/malathion concentration. Experiments were replicated three times for diazinon, and twice for malathion. The insecticidal effects were defined by measuring the pupation rate. […] Compounds were also without diazinon or malathion at 1 mg per assay.

A further test has as its target T1, wildtype LcαE7 (Lucilia cuprina, UniProt Q25252).
T1 sequence (Q25252 1-570): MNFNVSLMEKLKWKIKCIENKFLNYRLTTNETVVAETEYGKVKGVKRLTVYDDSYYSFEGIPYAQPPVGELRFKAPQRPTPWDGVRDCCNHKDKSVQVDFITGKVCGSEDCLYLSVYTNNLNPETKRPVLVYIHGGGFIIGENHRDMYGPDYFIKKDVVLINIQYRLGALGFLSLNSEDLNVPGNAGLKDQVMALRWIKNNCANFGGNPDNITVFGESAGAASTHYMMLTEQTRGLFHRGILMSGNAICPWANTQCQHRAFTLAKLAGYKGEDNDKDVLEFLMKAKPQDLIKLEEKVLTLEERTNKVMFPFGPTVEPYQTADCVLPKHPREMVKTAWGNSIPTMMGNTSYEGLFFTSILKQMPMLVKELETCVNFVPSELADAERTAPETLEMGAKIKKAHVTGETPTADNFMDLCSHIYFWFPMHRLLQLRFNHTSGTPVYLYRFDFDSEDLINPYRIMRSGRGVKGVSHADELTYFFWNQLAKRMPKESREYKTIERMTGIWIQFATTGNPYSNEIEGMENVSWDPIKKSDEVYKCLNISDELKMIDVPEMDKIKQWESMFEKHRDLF
In words: Enzyme inhibition assay with 4-nitrophenol butyrate, wild-type. It counts as biochemical. As to the method:
Wild-type LcαE7 was heterologously expressed in Escherichia coli and purified using metal ion affinity and size exclusion chromatography. The potency of the boronic acids was determined by enzymatic assays of recombinant LcαE7 with the model carboxylester substrate 4-nitrophenol butyrate.
(§3) Inhibition of wild-type αE7 and the Gly137Asp αE7 variant was determined by a competition assay between the native-substrate analogue 4-nitrophenol butyrate (Sigma) and the boronic acid compounds. Initially, the Michalis constant (KM) with 4-nitrophenol butyrate was measured for both enzymes to determine an appropriate concentration of substrate for use in the competition assays. Formation of the 4-nitrophenolate product of hydrolysis was monitored at 405 nm in the presence of enzyme and eight different concentrations of substrate. 4-nitrophenol butyrate was prepared in methanol to 100 mM and serially diluted 1-in-2 to achieve concentrations from 100 mM to 0.8 mM. Enzyme stocks were prepared in 4 mg/ml bovine serum albumin (Sigma) to maintain enzyme stability. Reactions were prepared by pipetting 178 μl assay buffer (100 mM NaCl, 20 mM HEPES pH 7.5) and 2 μl substrate (final concentrations of 1000 to 8 μM) into 300 μl wells of a 96-well plate. The reaction was initiated by the addition of 20 μl enzyme (final concentration 2.5 nM for wildtype αE7 and 4 nM for Gly137Asp αE7). Product formation was monitored for four minutes at room temperature using an Epoch microplate spectrophotometer (BioTek) and the initial rates of ester hydrolysis were determined by linear regression using GraphPad Prism. The Michalis constant was determined by fitting the initial rates to the Michalis-Menton equation (FIG. 10).
(§4) Enzyme inhibition with the boronic acid compounds was determined by assaying the initial rate of 4-nitrophenol butyrate hydrolysis in the presence of either neat DMSO or the boronic acid compounds in DMSO. Compounds were prepared by serially diluting 1-in-3 an initial 10 mM stock to achieve concentrations from 10 mM to 2 nM. Reactions were prepared by pipetting 178 μl assay buffer supplemented with substrate to a final concentration equal to the KM of the enzyme (15 μM for wildtype αE7 and 250 μM for Gly137Asp αE7) into wells of a 96-well plate. 2 μl neat DMSO or 2 μl serially diluted inhibitor (final concentrations of 100 μM to 20 pM) were added to the wells. The reaction was initiated by the addition of 20 μl enzyme (final concentration 0.5 nM for wildtype αE7 and 10 nM for Glyl37Asp αE7). Product formation was monitored for four minutes at room temperature and the initial rates of ester hydrolysis were determined by linear regression. To determine the concentration of boronic acid compounds required to inhibit 50% of esterase activity (IC50), a four-parameter sigmoidal dose-response curve was fitted to percentage inhibition using GraphPad Prism (FIGS. 7 and 8). Ki values were determined using the Cheng-Prusoff equation assuming competitive inhibition (Yung-Chi, C. & Prusoff W. H. Relationship between the inhibition constant (KI) and the concentration of inhibitor which causes 50 percent inhibition (150) of an enzymatic reaction. Biochem. Pharmacol. 22, 3099-3108 (1973)).

In a further test the target is T2, Gly137Asp LcαE7 (Lucilia cuprina, UniProt Q25252, G137D).
T2 sequence (Q25252 1-570 G137D): T1 sequence (Q25252 1-570) with G137D
The test can be described thus: Enzyme inhibition assay with 4-nitrophenol butyrate, Gly137Asp variant. It counts as biochemical. The procedure: as §3, §4
The two most common CBE-mediated insecticide resistance mechanisms involve increased protein expression, or mutation to gain new catalytic (OP-hydrolase) functions. Compounds 1 to 5 were tested against the resistance associated Gly137Asp variant of LcαE7^17,27 (Table 1). The Glyl37Asp mutation is located in the oxyanion hole and positions a new general base in the active site to catalyze dephosphorylation of the catalytic serine. Thus, compounds that inhibit WT LcαE7 as well as this common resistance associated Glyl37Asp variant would increase the efficacy of OPs by targeting both detoxification routes. Encouraged by the activity of the boronic acids 1 to 5, the compounds were tested against the Gly137Asp variant of LcαE7 (Table 1).

The target in test [4] is T3, Gly137Asp LcαE7 (Gly137Asp variant of αE7 carboxylesterase) (Lucilia cuprina, UniProt Q25252, G137D).
T3 construct: GenBank number is of the wild-type parent
The test can be described thus: Inhibition of Gly137Asp αE7 (competition assay, hydrolysis of 4-nitrophenol butyrate), dose-response curves of FIG. 8. It counts as biochemical. As to the method:
FIG. 8 presents dose-response curves for the inhibition of Glyl37Asp αE7. Inhibition of the hydrolysis of […] was determined for phenyl boronic acid (PBA) and compounds 1-5 and 3.1-3.12. Three (technical) replicate measurements of enzyme activity were performed for each concentration of boronic acid. The concentration of boronic acid required to inhibit 50% of activity (IC50) was determined by fitting a sigmoidal dose-response curve to plots of percentage inhibition. The curve was constrained to 0 (bottom) and 100% (top) inhibition with a variable Hill slope. […]
His6-tagged proteins were expressed in BL21(DE3) E. coli (Invitrogen) at 26° C. for 18 hours. Cells were collected by centrifugation, resuspended in lysis buffer (300 mM NaCl, 10 mM imidazole, 50 mM HEPES pH 7.5) and lysed by sonication. Cell debris was pelleted by centrifugation and the soluble fraction was loaded onto a HisTrap-HP Ni-Sepharose column (GE Healthcare). Bound protein was eluted with lysis buffer supplemented with 300 mM imidazole. Fractions containing the eluted protein were concentrated with a 30 kDa molecular mass cutoff centrifuge concentrator (Amicon) and loaded onto a HiLoad 26/60 Superdex-200 size-exclusion column (GE Healthcare) pre-equilibrated with 150 mM NaCl, 20 mM HEPES pH 7.5. Eluted fractions containing the monomeric protein were pooled for enzyme inhibition assays or crystallization. Protein concentration was determined by measuring the absorbance at 280 nm with an extinction coefficient calculated using the Protparam online server (Gasteiger, E. et al. Protein identification and analysis tools on the ExPASy server. Proteomics Protoc. Handb. 571-607 (2005). doi:10.1385/1-59259-890-0:571).
as §3
Enzyme inhibition with the boronic acid compounds was determined by assaying the initial rate of 4-nitrophenol butyrate hydrolysis in the presence of either neat DMSO or the boronic acid compounds in DMSO. Compounds were prepared by serially diluting 1-in-3 an initial 10 mM stock to achieve concentrations from 10 mM to 2 nM. Reactions were prepared by pipetting 178 μl assay buffer supplemented with substrate to a final concentration equal to the KM of the enzyme (15 μM for wildtype αE7 and 250 μM for Gly137Asp αE7) into wells of a 96-well plate. 2 μl neat DMSO or 2 μl serially diluted inhibitor (final concentrations of 100 μM to 20 pM) were added to the wells. The reaction was initiated by the addition of 20 μl enzyme (final concentration 0.5 nM for wildtype αE7 and 10 nM for Glyl37Asp αE7). […]

`CCOC(=O)CC(SP(=S)(OC)OC)C(=O)OCC` (centres unmarked) [Mal alone, malathion, reference compound]: the “Malathion dose response EC50” value in test [1] is on record as 2.06 μg/assay.
With `OB(O)c1cc2ccc(OCc3ccccc3)cc2[nH]1` [Compound C10], the Ki at Aedes aegypti CBE stood at 0.01 µM; on Anopheles gambiae CBE, 0.08 µM; in test [2] it was 0.19 µM.
For `O=C(Nc1ccccc1Cl)c1cc(B(O)O)ccc1Cl` [Compound C2], the Ki on Aedes aegypti CBE worked out at 37 µM; on Anopheles gambiae CBE it was 0.42 µM; in test [2], 3.6 µM.
As for `CCOP(=S)(OCC)Oc1cc(C)nc(C(C)C)n1` [Dz alone, diazinon], the “Diazinon dose response EC50” value in test [1] is on record as 0.80 μg/assay; in test [3] (field (Tara) strain, pupation rate, boronic acid, where present, at 1 mg/assay), 2.29 μg/assay. Further, the “RR = resistance ratio” value in test [3] (EC50 with the field strain/EC50 for Dz alone for the laboratory strain) was 2.86 ^#. Further, the “diazinon EC50 for the field strain compared to the laboratory strain” value in test [3] (absence of the boronic acids, fold higher) turned out to be 2.9 fold.
Take `OB(O)c1ccc(COc2ccc(Cl)c3ccccc23)cc1` [Compound C21]: the Ki at Aedes aegypti CBE came out at 10 µM; at Anopheles gambiae CBE, 0.2 µM; in test [2], 0.14 µM.
With `OB(O)c1cc(Cl)cc(N2CCCC2)c1` [Compound 3.2], the Ki on wildtype LcαE7 came out at 0.00035 µM; at Gly137Asp LcαE7 it was 0.21 µM. This compound gave an IC50 in test [4] of 0.4 µM.

What is called Ki is a measure of affinity in units of concentration, obtained from inhibition or displacement. Read a low Ki as tighter binding. The term IC50 denotes the concentration that gives 50% inhibition.
